Assay results: PMC12435400, “Thymidine Phosphorylase Inhibitory Potential and Molecular Docking Studies of Secondary Metabolites Isolated From Fernandoa adenophylla (Wall. ex G. Don) Steenis” (Chemistry & Biodiversity, 2025)
Like-named read-outs stand apart in the source and are kept apart here.

Tests used:
[1] = biological target: T1, recombinant EcTP enzyme (thymidine phosphorylase) (Escherichia coli, UniProt P07650); experiment: biochemical
T1 construct: purchased
Method: (§1) In this study, we utilized commercially available recombinant EcTP enzyme as a model for TP inhibition assessment due to its structural similarities with mammalian TP enzymes. Spectrophotometric TP inhibition assays were conducted by incubating 0.058 U of EcTP enzyme with 500 µM of test compounds at 30°C for 10 min. Subsequently, 1.5 mM of thymidine substrate was added, and absorbance changes were monitored for 10 min at 290 nm using a microplate reader. […] Mechanistic studies involved incubating the TP enzyme with varying inhibitor concentrations and substrate concentrations ranging from 0.1875 to 1.5 µM. Enzyme activity was assessed by measuring absorbance changes for an additional 10 min. Triplicate experiments were conducted for mechanistic investigations to ensure the results' robustness.

[2] = biological target: T2, thymidine phosphorylase (EcTP) (Escherichia coli, UniProt P07650); experiment: biochemical
T2 construct: purchased
Method: Mechanism‐based studies were carried out on the selected compounds, that is, 1, 2, and 5.
as §1
Chemical reactions were examined using kinetic studies to determine their rates, mode of inhibition, and the variables influencing these characteristics. The kind and mechanism of inhibition of derivatives are ascertained here. Test compounds (0.5–500 µM) were incubated with TP (0.058 U/200 µL) for 10 min at 30°C in mechanistic studies. The addition of various thymidine concentrations (varying from 0.1875 to 1.5 µM) then started the process. Thymidine cleavage was tracked at 290 nm for ten min straight using an ELISA plate reader (SpectraMax 384; Molecular Devices, San Jose, CA, USA).

[3] = 500 µM test compound, 0.058 U EcTP, 1.5 mM thymidine, 30°C, read-out: % Inhibition
[4] = EcTP, thymidine substrate, absorbance at 290 nm, triplicate, read-out: IC50 ± SEM
[5] = dissociation constant from secondary replot of Lineweaver-Burk and Dixon plots, unit printed in text b13 only, read-out: Ki ± SEM
[6] = thymidine as variable substrate

T1 sequence (P07650 whole entry): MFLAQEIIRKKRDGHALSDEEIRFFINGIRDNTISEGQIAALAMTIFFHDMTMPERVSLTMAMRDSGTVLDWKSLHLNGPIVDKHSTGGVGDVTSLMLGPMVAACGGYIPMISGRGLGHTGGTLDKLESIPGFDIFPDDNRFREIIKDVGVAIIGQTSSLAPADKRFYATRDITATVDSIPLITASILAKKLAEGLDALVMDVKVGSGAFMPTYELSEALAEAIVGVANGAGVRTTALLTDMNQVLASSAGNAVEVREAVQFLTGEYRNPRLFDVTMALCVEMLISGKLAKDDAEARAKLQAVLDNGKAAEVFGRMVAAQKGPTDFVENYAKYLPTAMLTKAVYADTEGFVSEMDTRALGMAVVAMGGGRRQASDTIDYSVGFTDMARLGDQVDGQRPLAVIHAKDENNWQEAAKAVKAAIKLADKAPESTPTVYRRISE
T2 sequence (P07650 whole entry): as above

CC1(C)C=CC2=C(O1)C(=O)c1ccccc1C2=O [Dehydro‐α‐lapachone (4), Dehydro‐α‐lapachone]
inhibition at 500 µM [1, 3]: 82.6% | IC50 [1, 4]: 17.2 ± 1 µM

CC(C)=CCC1=C(O)C(=O)c2ccccc2C1=O [Lapachol (1), Lapachol]
Ki [2, 5]: 4.6 ± 0.006 µM | Type of Inhibitor [2, 6]: Non‐competitive | inhibition at 500 µM [1, 3]: 86.2% | IC50 [1, 4]: 2.3 ± 0.1 µM

CC(C)=C(C)[C@H]1C[C@]2(C)OC3=C(C(=O)c4ccccc4C3=O)[C@H]3[C@@H]2[C@@]12C(=O)c1ccccc1[C@@]3(O)C2=O [Peshawaraquinone (3), Peshawaraquinone]
inhibition at 500 µM [1, 3]: 87.1% | IC50 [1, 4]: 4.9 ± 0.8 µM

COC(=O)C1(O)c2ccccc2C(=O)C1(O)CC=C(C)C (stereo not drawn) [Indanone derivative (5), Methyl‐1,2‐dihydroxy‐2‐(3‐methylbut‐2‐en‐1‐yl)‐3‐oxo‐2,3‐dihydro‐1H‐indene‐1carboxylate]
Ki [2]: 7.1 ± 0.009 µM | Type of Inhibitor [2, 6]: Non‐competitive | IC50 [1]: 1.8 ± 0.5 µM | inhibition at 500 µM [1]: 91.3%

O=c1[nH]c(=O)c2cc[nH]c2[nH]1 [7‐Deazaxanthine, reference compound]
Type of Inhibitor [2]: Non‐competitive | inhibition at 500 µM [1]: 80.6%

CC1(C)CCC2=C(O1)C(=O)c1ccccc1C2=O [Alpha‐lapachone (2), Alpha‐lapachone]
Ki [2, 5]: 4.9 ± 0.008 µM | Type of Inhibitor [2, 6]: Non‐competitive | inhibition at 500 µM [1, 3]: 88.3% | IC50 [1, 4]: 3.6 ± 0.9 µM
